Assay [1] deals with KP1004 KPC-2. Briefly: Biapenem potentiation (MPC@1), strain KP1004 KPC-2. The format is cell-based. Particulars: minimum BLI concentration inhibiting growth with biapenem 1 μg/mL; tested up to 40 μg/mL. How it is done:
(§1) Biapenem was present in the test medium at 1 μg/mL. […] Table 3 summarizes the BLI potency of biapenem potentiation (MPC@1) for two strains overexpressing class A (KPC) and class D (OXA-48) carbapenemases. Biapenem MIC for each strain is also shown.

For the next assay, the system named is KP1086 OXA-48. Briefly: Biapenem potentiation (MPC@1), strain KP1086 OXA-48. Format: cell-based. Particulars: minimum BLI concentration inhibiting growth with biapenem 1 μg/mL; tested up to 40 μg/mL. As to the method: as §1
In a further assay the test system is AB1053 OXA-72. Description: Meropenem potentiation (MPC@8), strain AB1053 OXA-72. The format is cell-based, Acinetobacter baumannii. Particulars: minimum BLI concentration inhibiting growth with meropenem 8 μg/mL; tested up to 20 μg/mL.
The test system of a further assay is AB1054 OXA-23. Description: Meropenem potentiation (MPC@8), strain AB1054 OXA-23. The format is cell-based, Acinetobacter baumannii. The following applies: minimum BLI concentration inhibiting growth with meropenem 8 μg/mL; tested up to 20 μg/mL.
The target of assay [2] is T1, purified class A, C and D enzymes (β-lactamases) (Acinetobacter baumannii, UniProt Q9L4P2).
T1 construct: rows headed: Ki (OXA-23, NCF), uM; other: purified OXA-23; nitrocefin (NCF) as reporter substrate
Briefly: biochemical. Format: biochemical. Particulars: purified OXA-23; nitrocefin (NCF) as reporter substrate.

Assay [3] has as its target purified class A, C and D enzymes (β-lactamases) (Enterobacter cloacae, UniProt P05364). Description: biochemical. The format is biochemical.
Assay [4] addresses purified class A, C and D enzymes (β-lactamases) (Escherichia coli, UniProt Q9L5C7). Description: biochemical. The format is biochemical. The following applies: purified CTX-M-14; nitrocefin (NCF) as reporter substrate.
For assay [5], the target named is purified class A, C and D enzymes (β-lactamases) (Klebsiella pneumoniae, UniProt Q6XEC0). Briefly: biochemical. Format: biochemical. Particulars: purified OXA-48; nitrocefin (NCF) as reporter substrate.
The target in assay [6] is purified class A, C and D enzymes (β-lactamases) (Klebsiella pneumoniae, UniProt Q9F663). Description: biochemical. Particulars: purified KPC-2; nitrocefin (NCF) as reporter substrate. Format: biochemical.
In assay [7] the target is T2, purified class A, C and D enzymes (β-lactamases) (Pseudomonas aeruginosa, UniProt P24735).
T2 construct: rows headed: Ki (Pa-AmpC, NCF), uM; other: purified Pa-AmpC; nitrocefin (NCF) as reporter substrate
Briefly: biochemical. Format: biochemical.

The subject of a further assay is ECL1002. Briefly: Aztreonam potentiation (MPC@4), strain ECL1002. Particulars: minimum BLI concentration inhibiting growth with aztreonam 4 μg/mL; tested up to 40 μg/mL.
In a further assay the test system is ec308 SHV-5. Description: Aztreonam potentiation (MPC@4), strain ec308 SHV-5. Particulars: minimum BLI concentration inhibiting growth with aztreonam 4 μg/mL; tested up to 40 μg/mL.
A further assay deals with ec302 TEM-10. Briefly: Aztreonam potentiation (MPC@4), strain ec302 TEM-10. The following applies: minimum BLI concentration inhibiting growth with aztreonam 4 μg/mL; tested up to 40 μg/mL.
The subject of assay [8] is KP1004 KPC-2. Briefly: Aztreonam potentiation (MPC@4), strain KP1004 KPC-2. Particulars: minimum BLI concentration inhibiting growth with aztreonam 4 μg/mL; tested up to 40 μg/mL.
For the next assay, the system named is EC1010 CMY-6. Briefly: Aztreonam potentiation (MPC@4), strain EC1010 CMY-6. The following applies: minimum BLI concentration inhibiting growth with aztreonam 4 μg/mL; tested up to 40 μg/mL.
For another assay, the system named is KP1010 SHV-12. Description: Aztreonam potentiation (MPC@4), strain KP1010 SHV-12. The following applies: minimum BLI concentration inhibiting growth with aztreonam 4 μg/mL; tested up to 40 μg/mL.
Another assay concerns KP1009 CTX-M-15. Briefly: Aztreonam potentiation (MPC@4), strain KP1009 CTX-M-15. The following applies: minimum BLI concentration inhibiting growth with aztreonam 4 μg/mL; tested up to 40 μg/mL.
In a further assay the test system is KP1005 CTX-M-14. Briefly: Tigemonam potentiation (MPC@4), strain KP1005 CTX-M-14. Particulars: minimum BLI concentration inhibiting growth with tigemonam 4 μg/mL; tested up to 40 μg/mL.

pKi: −log10 of the molar value.

Consider two compounds from patent US10618918B2, “Substituted boronic acids as antimicrobials” (priority 2015, dated 2020).

Chain of purified class A, C and D enzymes (β-lactamases) (Enterobacter cloacae, UniProt P05364) (P05364 21-381): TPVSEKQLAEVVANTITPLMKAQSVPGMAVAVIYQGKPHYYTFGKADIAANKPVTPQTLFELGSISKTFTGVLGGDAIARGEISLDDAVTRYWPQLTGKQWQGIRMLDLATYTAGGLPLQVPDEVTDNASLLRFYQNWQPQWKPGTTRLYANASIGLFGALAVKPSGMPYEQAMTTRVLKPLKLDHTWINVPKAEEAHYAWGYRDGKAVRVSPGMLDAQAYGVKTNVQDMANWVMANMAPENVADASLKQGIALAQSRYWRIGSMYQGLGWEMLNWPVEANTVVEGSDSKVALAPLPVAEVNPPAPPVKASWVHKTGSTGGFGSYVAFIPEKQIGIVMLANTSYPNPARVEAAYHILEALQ
T2 sequence (P24735 whole entry): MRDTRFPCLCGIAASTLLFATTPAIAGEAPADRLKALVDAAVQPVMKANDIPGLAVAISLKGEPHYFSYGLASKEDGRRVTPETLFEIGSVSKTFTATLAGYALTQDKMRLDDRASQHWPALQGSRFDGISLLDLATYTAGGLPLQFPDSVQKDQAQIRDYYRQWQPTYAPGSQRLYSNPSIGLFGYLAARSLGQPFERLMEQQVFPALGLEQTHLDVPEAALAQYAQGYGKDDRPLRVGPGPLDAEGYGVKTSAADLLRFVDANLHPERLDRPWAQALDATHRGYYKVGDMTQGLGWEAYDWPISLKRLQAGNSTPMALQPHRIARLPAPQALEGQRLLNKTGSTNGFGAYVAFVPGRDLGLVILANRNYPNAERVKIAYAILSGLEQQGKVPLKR
T1 sequence (Q9L4P2 whole entry): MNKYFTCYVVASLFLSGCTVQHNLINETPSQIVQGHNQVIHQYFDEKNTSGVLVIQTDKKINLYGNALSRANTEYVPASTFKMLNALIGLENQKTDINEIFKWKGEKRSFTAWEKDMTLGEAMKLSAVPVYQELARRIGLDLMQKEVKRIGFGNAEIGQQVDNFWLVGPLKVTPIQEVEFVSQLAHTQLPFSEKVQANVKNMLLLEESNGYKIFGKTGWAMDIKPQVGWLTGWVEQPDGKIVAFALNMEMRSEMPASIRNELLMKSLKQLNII
Chain of purified class A, C and D enzymes (β-lactamases) (Escherichia coli, UniProt Q9L5C7) (Q9L5C7 entry or part of it): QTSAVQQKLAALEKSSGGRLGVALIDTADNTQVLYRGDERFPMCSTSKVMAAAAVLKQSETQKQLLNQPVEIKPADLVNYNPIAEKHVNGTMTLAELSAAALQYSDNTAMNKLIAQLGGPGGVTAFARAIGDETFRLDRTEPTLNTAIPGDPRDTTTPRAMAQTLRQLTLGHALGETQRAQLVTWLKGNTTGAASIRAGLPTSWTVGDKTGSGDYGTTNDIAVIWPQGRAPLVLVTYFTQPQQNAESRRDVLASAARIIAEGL

As a reminder, the pKi is −log10 of the Ki, conventionally taken in molar units. The low end stands for a large Ki, the high end for a small Ki. Consider `O=C(O)c1c(-n2ccnn2)ccc2c1O[B-](O)(O)CC2` [Compound 13, Disodium; 4,4-dihydroxy-8-(triazol-1-yl)-5-oxa-4-boranuidabicyclo[4.4.0]deca-1(6),7,9-triene-7-carboxylate], for which, in the assay on KP1004 KPC-2 [1], the “BPM MPC1 KP1004 KPC-2” value is reported as “X (X = MPC@1 ≤ 5 μg/mL)”. Further, the “BPM MPC1 OXA-48 KP1086” value in the assay with KP1086 OXA-48 is listed as “X (X = MPC@1 ≤ 5 μg/mL)”. For the same compound, the “MPM MPC8 AB1053 OXA-72” value in the assay on AB1053 OXA-72 is reported as “X (X = MPC@1 ≤ 5 μg/mL)”. The “MPM MPC8 AB1054 OXA-23” value in the assay on AB1054 OXA-23 is “X (X = MPC@1 ≤ 5 μg/mL)”. Besides, the pKi in assay [2] and in assay [7] was > 7.00 each time. In addition, the “Ki (P99, NCF), uM” value in assay [3] is “X (key: X = Ki ≤ 0.1 μM; Y = 0.1 μM < Ki ≤ 1 μM; Z = Ki > 1 μM)”. The “Ki (CTX-M-14, NCF), uM” value in assay [4] was “X (X = Ki ≤ 0.1 μM)”. Besides, the “Ki (OXA-48, NCF), uM” value in [5] is given as “X (X = Ki ≤ 0.1 μM)”. Also, in assay [6], the “Ki (KPC-2, NCF), uM” value was “X (X = Ki ≤ 0.1 μM)”. Besides, in the assay with ECL1002, the “AZT MPC4 ECL1002” value is listed as “X (X = MPC@4 ≤ 5 μg/mL)”. Further, the “AZT MPC4 SHV-5 ec308” value with ec308 SHV-5 is “X (X = MPC@4 ≤ 5 μg/mL)”. Also, the “AZT MPC4 TEM-10 ec302” value with ec302 TEM-10 is given as “X (X = MPC@4 ≤ 5 μg/mL)”. Further, in the assay with KP1004 KPC-2 [8], the “AZT MPC4 KPC-2 KP1004” value was “X (X = MPC@4 ≤ 5 μg/mL)”. Moreover, the “AZT MPC4 CMY-6 EC1010” value in the assay on EC1010 CMY-6 was “X (X = MPC@4 ≤ 5 μg/mL)”. Besides, the “AZT MPC4 SHV-12 KP1010” value in the assay with KP1010 SHV-12 is on record as “X (X = MPC@4 ≤ 5 μg/mL)”. For the same compound, the “AZT MPC4 CTX-M-15 KP1009” value in the assay with KP1009 CTX-M-15 is listed as “X (X = MPC@4 ≤ 5 μg/mL)”. The “TIG MPC4 CTX-M-14 KP1005” value in the assay with KP1005 CTX-M-14 is listed as “X (X = MPC@4 ≤ 5 μg/mL)”.

Consider `NCCc1cn(-c2ccc3c(c2C(=O)O)O[B-](O)(O)CC3)nn1` [Compound 14, Disodium; 8-[4-(2-aminoethyl)triazol-1-yl]-4,4-dihydroxy-5-oxa-4-boranuidabicyclo[4.4.0]deca-1(6),7,9-triene-7-carboxylate], for which the “BPM MPC1 KP1004 KPC-2” value in the assay on KP1004 KPC-2 [1] is “X (X = MPC@1 ≤ 5 μg/mL)”. The “BPM MPC1 OXA-48 KP1086” value in the assay on KP1086 OXA-48 was “X (X = MPC@1 ≤ 5 μg/mL)”. In addition, the “MPM MPC8 AB1053 OXA-72” value in the assay with AB1053 OXA-72 is on record as “X (X = MPC@1 ≤ 5 μg/mL)”. The “MPM MPC8 AB1054 OXA-23” value in the assay on AB1054 OXA-23 is on record as “X (X = MPC@1 ≤ 5 μg/mL)”. The figures for the pKi in assay [2] and in [7] were > 7.00 and < 6.00, respectively. For the same compound, in assay [3], the “Ki (P99, NCF), uM” value is recorded as “Y (key: X = Ki ≤ 0.1 μM; Y = 0.1 μM < Ki ≤ 1 μM; Z = Ki > 1 μM)”. Moreover, the “Ki (CTX-M-14, NCF), uM” value in assay [4] was “X (X = Ki ≤ 0.1 μM)”. The “Ki (OXA-48, NCF), uM” value in [5] is given as “X (X = Ki ≤ 0.1 μM)”. The “Ki (KPC-2, NCF), uM” value in assay [6] is “X (X = Ki ≤ 0.1 μM)”. Moreover, the “AZT MPC4 ECL1002” value in the assay with ECL1002 was “Z (Z = MPC@4 > 20 μg/mL)”. In addition, the “AZT MPC4 SHV-5 ec308” value in the assay on ec308 SHV-5 is reported as “Y (Y = 5 μg/mL < MPC@4 ≤ 20 μg/mL)”. Further, the “AZT MPC4 TEM-10 ec302” value with ec302 TEM-10 is on record as “Y (Y = 5 μg/mL < MPC@4 ≤ 20 μg/mL)”. In addition, in the assay with KP1004 KPC-2 [8], the “AZT MPC4 KPC-2 KP1004” value is “X (X = MPC@4 ≤ 5 μg/mL)”. The “AZT MPC4 CMY-6 EC1010” value with EC1010 CMY-6 is recorded as “Y (Y = 5 μg/mL < MPC@4 ≤ 20 μg/mL)”. Also, the “AZT MPC4 SHV-12 KP1010” value in the assay on KP1010 SHV-12 was “X (X = MPC@4 ≤ 5 μg/mL)”. For the same compound, in the assay with KP1009 CTX-M-15, the “AZT MPC4 CTX-M-15 KP1009” value was “Y (Y = 5 μg/mL < MPC@4 ≤ 20 μg/mL)”. For the same compound, the “TIG MPC4 CTX-M-14 KP1005” value in the assay on KP1005 CTX-M-14 is given as “Z (Z = MPC@4 > 20 μg/mL)”.
